Results on two compounds are retold here after patent US20230089605A1, “USE OF DOXYCYCLINE, RESVERATROL, IVERMECTIN, AND RELATED CHEMICALLY MODIFIED COMPOUNDS TO TREAT OR PREVENT VIRAL INFECTIONS” (Ardestat Biologics, LLC, priority 2021, published 2023).

This assay concerns the target T1, MMP9 (Homo sapiens, UniProt P14780).
T1 construct: purchased Abcam ab139449
Description: MMP9 inhibitor screening assay kit (Fluorometric), Abcam. The assay is classed as biochemical. Conditions: result given in words only. As for the experimental part: Doxycycline, resveratrol, colchicine, and ivermectin were assessed at the indicated concentrations using the MMP9 Inhibitor Screening Assay Kit (abcam), according to the manufacturer's instructions.
Inhibition of MMP9 was determined using the MMP9 inhibitor screening assay kit (Fluorometric) from Abcam (Cat#ab139449) according to the manufacturer's instructions. Unquenching of a fluorogenic peptide by MMP9 was monitored for 10 minutes in the presence or absence of inhibitory compounds, using a fluorescent microplate reader (Ex/Em=328/420). Reaction velocity (V) in RFU/minute was used to determine the % of remaining enzymatic activity, relative to untreated control, according to the following equation: (Vinhibitor/Vcontrol)×100 (FIG. 2).

T1 sequence (P14780 107-444 limits assumed): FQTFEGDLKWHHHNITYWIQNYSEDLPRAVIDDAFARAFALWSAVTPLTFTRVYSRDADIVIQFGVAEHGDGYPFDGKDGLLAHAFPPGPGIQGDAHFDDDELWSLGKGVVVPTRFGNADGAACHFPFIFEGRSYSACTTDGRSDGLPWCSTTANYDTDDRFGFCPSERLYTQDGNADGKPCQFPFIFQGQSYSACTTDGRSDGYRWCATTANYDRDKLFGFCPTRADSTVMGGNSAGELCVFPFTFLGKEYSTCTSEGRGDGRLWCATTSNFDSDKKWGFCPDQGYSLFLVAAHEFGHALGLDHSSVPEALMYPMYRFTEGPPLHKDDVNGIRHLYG

For the compound `Oc1ccc(C=Cc2cc(O)cc(O)c2)cc1` [resveratrol], under “fluorogenic peptide unquenching monitored 10 minutes, FIG. 2”, the “inhibition of MMP activity (% of remaining enzymatic activity relative to untreated control)” value is “inhibited MMP activity but to a much more modest extent compared to doxycycline”.

With ivermectin, the “interference with the MMP-inhibiting effects of doxycycline and resveratrol” value was “has not been shown to interfere with these MMP-inhibiting effects”.
